Experimental data: US12060355B2, “Compounds for use in the treatment of fascioliasis” (Merck Patent GmbH, priority 2018, dated 2024)
Like-named read-outs stand apart in the source and are kept apart here. Values belong to the compound of their own block, whether it stands above or below them.

How the values were obtained:
[1] = tested on: human MRC-5 cell line; assay: Cytotoxicity against human MRC-5 cell line; type: cell-based
Protocol: (§1) The routine biological assays using adult or juvenile S. mansoni worms and cytotoxicity assays using MRC-5 cells have been disclosed previously in Mansour, N. R., et al. (2016). “High Throughput Screening Identifies Novel Lead Compounds with Activity against Larval, Juvenile and Schistosoma mansoni PLoS Negl Trop Dis 10(4): e0004659. Cytotoxicity assays using the HepG2 cell line were carried out as described in Molecular Diversity (2015) 19, 251-261. • (a) F. hepatica adult fluke motility score tested at 5 μM. Motility is scored as per the table below: • Good movement Score 1 • (Curled, sticking on wall, movement on petri plate or conical flask) • Moderate movement Score 2 • (Less vigor but more than 10 seconds pulses or peristaltic waves) • Resting Score 3 • (Less than 10 second pulses in head and body) • Apathetic Score 4 • (Head and body with less than 2 second pulses) • Faint movement of suckers Score 5 • (Movement of oral or ventral suckers only, whole body paralyzed) • Inert Score 6 • (No movement at all or dead) • (b) S. mansoni adult worms • (c) S. mansoni juvenile worms • (d) S. haemotobium adult worms • (e) Cytotoxicity against human MRC-5 cell line • (f) Cytotoxicity against human HepG2 cell lines

[2] = tested on: S. mansoni juvenile worms; assay: S. mansoni juvenile worm assay, in vitro; type: cell-based; conditions: Schistosoma mansoni, read-out: S. mansoni Juvenile
Protocol: as §1

[3] = tested on: human HepG2 cell lines; type: cell-based; conditions: human HepG2 cell line
[4] = tested on: F. hepatica adult fluke; assay: F. hepatica adult fluke motility score, in vitro; type: cell-based, Fasciola hepatica; design: key: Good movement Score 1 • (Curled, sticking on wall, movement on petri plate or conical flask); Moderate movement Score 2 • (Less vigor but more than 10 seconds pulses or peristaltic waves); Resting Score 3 • (Less than 10 second pulses in head and body); Apathetic Score 4 • (Head and body with less than 2 second pulses); Faint movement of suckers Score 5 • (Movement of oral or ventral suckers only, whole body paralyzed); Inert Score 6 • (No movement at all or dead); conditions: for F. hepatica motility score after 24 h / F. hepatica motility score after 48 h / F. hepatica motility score after 72 h: adult fluke
Excerpt: The routine biological assays using adult liver fluke are described in Alessandra Crusco, Cinzia Bordoni, Anand Chakroborty, Kezia C. L. Whatley, Helen Whiteland, Andrew D. Westwell, Karl F. Hoffmann, “Design, synthesis and anthelmintic activity of 7-keto-sempervirol analogues”, European Journal of Medicinal Chemistry, Volume 152, 2018, Pages 87-100.
The routine biological assays using adult or juvenile S. mansoni worms and cytotoxicity assays using MRC-5 cells have been disclosed previously in Mansour, N. R., et al. (2016). “High Throughput Screening Identifies Novel Lead Compounds with Activity against Larval, Juvenile and Schistosoma mansoni PLoS Negl Trop Dis 10(4): e0004659. […] Motility is scored as per the table below: • Good movement Score 1 • (Curled, sticking on wall, movement on petri plate or conical flask) • Moderate movement Score 2 • (Less vigor but more than 10 seconds pulses or peristaltic waves) • Resting Score 3 • (Less than 10 second pulses in head and body) • Apathetic Score 4 • (Head and body with less than 2 second pulses) • Faint movement of suckers Score 5 • (Movement of oral or ventral suckers only, whole body paralyzed) • Inert Score 6 • (No movement at all or dead) • (b) S. mansoni adult worms • (c) S. mansoni juvenile worms • (d) S. haemotobium adult worms • (e) Cytotoxicity against human MRC-5 cell line • (f) Cytotoxicity against human HepG2 cell lines

[5] = 5 μM, score 1 (good movement) to 6 (inert)

Structure (SMILES): Cc1nc2cnc(-c3cccc(C(F)(F)F)c3)cn2c1-c1ccc(O)cc1F [Example 6, 3-fluoro-4-[2-methyl-6-[3-(trifluoromethyl)phenyl]imidazo[1,2-a]pyrazin-3-yl]phenol]
Cytotox MRC-5 [1]: 15.8 µM

Structure (SMILES): COc1ccc(-c2c(C(C)C)nc3cnc(-c4cccc(C(F)(F)F)c4)cn23)cc1OP(=O)(O)O [Example 28, 2-methoxy-5-[2-(propan-2-yl)-6-[3-(trifluoromethyl)phenyl]imidazo[1,2-a]pyrazin-3-yl]phenoxyphosphonic acid]
IC50 [2]: 183 nM | Cytotox HepG2 [3]: 19.2 µM

Structure (SMILES): Cc1nc2cnc(-c3ccc(F)c(C(F)(F)F)c3)cn2c1-c1c(F)cc(OP(=O)(O)O)cc1F [Example 41, 3,5-difluoro-4-{6-[4-fluoro-3-(trifluoromethyl)phenyl]-2-methyl-imidazo[1,2-a]pyrazin-3-yl}phenoxyphosphonic acid]
IC50 [2]: 100 nM | Cytotox HepG2 [3]: 6.8 µM

Structure (SMILES): CC(C)c1nn2cnc(-c3ccc(F)c(C(F)(F)F)c3)cc2c1-c1c(F)cc(O)cc1F [Example 47, 3,5-difluoro-4-(5-(4-fluoro-3-(trifluoromethyl)phenyl)-2-isopropylpyrazolo[1,5-c]pyrimidin-3-yl)phenol]
Cytotox HepG2 [3]: 8.9 µM | F. hepatica motility score after 24 h [4, 5]: (6, 6, 6) at 5 μM | F. hepatica motility score after 48 h ([4]; 5 μM, score 1 to 6 (inert)): (6, 6, 6) at 5 μM | F. hepatica motility score after 72 h ([4]; 5 μM, score 1 to 6 (inert)): (6, 6, 6) at 5 μM

Structure (SMILES): Fc1ccc(-c2cn3c(-c4ccc5[nH]ncc5c4F)c(C(F)(F)F)nc3cn2)cc1C(F)(F)F [Example 50, 3-(4-Fluoro-1H-indazol-5-yl)-6-(4-fluoro-3-trifluoromethylphenyl)-2-trifluoromethyl-imidazo[1,2-a]pyrazine]
Mean motility score of F hepatica at 24 h ([4]; 0.04 μM): 1, 1, 1 | Mean motility score of F hepatica at 48 h ([4]; 0.04 μM): 1, 1, 1 | Mean motility score of F hepatica at 72 h ([4]; 0.04 μM): 1, 1, 1 | Mean motility score of F hepatica at 24 h ([4]; 0.2 μM): 2 | Mean motility score of F hepatica at 48 h ([4]; 0.2 μM): 2 | Mean motility score of F hepatica at 72 h ([4]; 0.2 μM): 2.5 | Mean motility score of F hepatica at 24 h ([4]; 1 μM): 6, 6, 6 | Mean motility score of F hepatica at 48 h ([4]; 1 μM): 6, 6, 6 | Mean motility score of F hepatica at 72 h ([4]; 1 μM): 6, 6, 6 | Mean motility score of F hepatica at 24 h ([4]; 5 μM): 6, 6, 6 | Mean motility score of F hepatica at 48 h ([4]; 5 μM): 6, 6, 6 | Mean motility score of F hepatica at 72 h ([4]; 5 μM): 6, 6, 6 | F. hepatica motility score after 24 h [4, 5]: (6, 6, 6) at 5 μM | F. hepatica motility score after 48 h ([4]; 5 μM, score 1 to 6 (inert)): (6, 6, 6) at 5 μM | F. hepatica motility score after 72 h ([4]; 5 μM, score 1 to 6 (inert)): (6, 6, 6) at 5 μM

IC50 ([2]; juvenile worms in vitro, IC50): 830 nM
Structure (SMILES): Cc1n[nH]c2ccc(-c3c(C(C)C)nc4cnc(-c5cccc(C(F)(F)F)c5)cn34)cc12 [Example 51, 2-Isopropyl-3-(3-methyl-1H-indazol-5-yl)-6-(3-trifluoromethyl-phenyl)-imidazo[1,2-a]pyrazine]
Cytotox HepG2 [3]: 10.3 µM

Structure (SMILES): O=P(O)(O)Oc1cc(F)c(-c2c(C3CC3)nc3cnc(-c4ccc(F)c(C(F)(F)F)c4)cn23)c(F)c1 [Example 62, Phosphoric acid mono-{4-[2-cyclopropyl-6-(4-fluoro-3-trifluoromethyl-phenyl)-imidazo[1,2-a]pyrazin-3-yl]-3,5-difluoro-phenyl} ester]
IC50 [2]: 3.7 nM | Cytotox HepG2 [3]: 14.8 µM

Structure (SMILES): CC(C)Oc1cc(-c2cn3c(-c4ccc5[nH]ncc5c4F)c(C(F)(F)F)nc3cn2)ccc1F [Example 81, 3-(4-Fluoro-1H-indazol-5-yl)-6-(4-fluoro-3-isopropoxy-phenyl)-2-trifluoromethyl-imidazo[1,2-a]pyrazine]
Cytotox HepG2 [3]: 9.2 µM

Structure (SMILES): Fc1ccc(-c2cn3c(-c4ccc5[nH]ncc5c4F)c(C(F)(F)F)nc3cn2)cc1C1CCC1 [Example 82, 6-(3-Cyclobutyl-4-fluoro-phenyl)-3-(4-fluoro-1H-indazol-5-yl)-2-trifluoromethyl-imidazo[1,2-a]pyrazine]
Cytotox HepG2 [3]: 6.1 µM

Structure (SMILES): CC(C)c1cc(-c2cn3c(-c4ccc5[nH]ncc5c4Cl)c(C(F)(F)F)nc3cn2)ccc1F [Example 83, 3-(4-Chloro-1H-indazol-5-yl)-6-(4-fluoro-3-isopropyl-phenyl)-2-trifluoromethyl-imidazo[1,2-a]pyrazine]
Cytotox HepG2 [3]: 6.6 µM

Structure (SMILES): Fc1ccc(-c2cn3c(-c4ccc5[nH]ncc5c4F)c(C(F)(F)F)nc3cn2)cc1C1CC1 [Example 84, 6-(3-Cyclopropyl-4-fluoro-phenyl)-3-(4-fluoro-1H-indazol-5-yl)-2-trifluoromethyl-imidazo[1,2-a]pyrazine]
Cytotox HepG2 [3]: 10.5 µM

Structure (SMILES): CC(C)Oc1cccc(-c2cn3c(-c4ccc5[nH]ncc5c4F)c(C(F)(F)F)nc3cn2)c1 [Example 86, 3-(4-Fluoro-1H-indazol-5-yl)-6-(3-isopropoxy-phenyl)-2-trifluoromethyl-imidazo[1,2-a]pyrazine]
Cytotox HepG2 [3]: 13.2 µM

Structure (SMILES): CC(C)c1cc(-c2cn3c(-c4ccc5[nH]ncc5c4F)c(C(F)(F)F)nc3cn2)ccn1 [Example 87, 3-(4-Fluoro-1H-indazol-5-yl)-6-(2-isopropyl-pyridin-4-yl)-2-trifluoromethyl-imidazo[1,2-a]pyrazine]
Cytotox HepG2 [3]: 9.5 µM

Structure (SMILES): Fc1c(-c2c(C(F)(F)F)nc3cnc(-c4ccnc(C(F)(F)F)c4)cn23)ccc2[nH]ncc12 [Example 88, 3-(4-Fluoro-1H-indazol-5-yl)-2-trifluoromethyl-6-(2-trifluoromethyl-pyridin-4-yl)-imidazo[1,2-a]pyrazine]
Cytotox HepG2 [3]: 7.0 µM

Structure (SMILES): CC(C)c1nc2cnc(-c3ccc(F)c(C(F)(F)F)c3)nc2n1-c1c(F)cc(O)cc1F [Example 89, 3,5-Difluoro-4-[2-(4-fluoro-3-trifluoromethyl-phenyl)-8-isopropyl-purin-9-yl]-phenol]
Cytotox HepG2 [3]: 4.8 µM | F. hepatica motility score after 24 h [4, 5]: (6, 6, 6) | F. hepatica motility score after 48 h ([4]; 5 μM, score 1 to 6 (inert)): (6, 6, 6) | F. hepatica motility score after 72 h ([4]; 5 μM, score 1 to 6 (inert)): (6, 6, 6)

Structure (SMILES): CC(C)c1nc2cnc(-c3cccc(C(F)(F)F)c3)nc2n1-c1ccc(O)cc1F [Example 90, 3-fluoro-4-[8-(propan-2-yl)-2-[3-(trifluoromethyl)phenyl]-9H-purin-9-yl]phenol]
Cytotox HepG2 [3]: 9.3 µM

IC50 ([2]; juvenile worms in vitro, IC50): 530 nM
Structure (SMILES): COc1ccc(-c2c(C)nc3ccc(-c4cccc(C(F)(F)F)c4)cn23)cc1O [Example 91, 2-methoxy-5-[2-methyl-6-[3-(trifluoromethyl)phenyl]imidazo[1,2-a]pyridin-3-yl]phenol]

IC50 ([2]; juvenile worms in vitro, IC50): 360 nM
Structure (SMILES): COc1ccc(-c2c(C(C)C)nc3ccc(-c4cccc(C(F)(F)F)c4)cn23)cc1O [Example 92, 2-methoxy-5-[2-isopropyl-6-[3-(trifluoromethyl)phenyl]imidazo[1,2-a]pyridin-3-yl]phenol]

IC50 ([2]; juvenile worms in vitro, IC50): 830 nM
Structure (SMILES): Cc1nc2ccc(-c3cccc(C(F)(F)F)c3)cn2c1-c1ccc(O)cc1F [Example 93, 3-fluoro-4-[2-methyl-6-[3-(trifluoromethyl)phenyl]imidazo[1,2-a]pyridin-3-yl]phenol]

IC50 ([2]; juvenile worms in vitro, IC50): 250 nM
Structure (SMILES): CC(C)c1nc2ccc(-c3cccc(C(F)(F)F)c3)cn2c1-c1ccc(O)cc1F [Example 94, 3-fluoro-4-[2-isopropyl-6-[3-(trifluoromethyl)phenyl]imidazo[1,2-a]pyridin-3-yl]phenol]
Cytotox HepG2 [3]: 10.6 µM | F. hepatica motility score after 24 h [4, 5]: (6, 6, 6) | F. hepatica motility score after 48 h ([4]; 5 μM, score 1 to 6 (inert)): (6, 6, 6) | F. hepatica motility score after 72 h ([4]; 5 μM, score 1 to 6 (inert)): (6, 6, 6)

Structure (SMILES): CSc1nc2cc(Cl)c(Oc3cccc(Cl)c3Cl)cc2[nH]1 [Triclabendazole, reference compound]
Mean motility score of F hepatica at 24 h ([4]; 40 μM): 2 | Mean motility score of F hepatica at 48 h ([4]; 40 μM): 3.5 | Mean motility score of F hepatica at 72 h ([4]; 40 μM): 6 | F. hepatica motility score after 24 h ([4]; 40 μM, score 1 to 6 (inert)): 3 | F. hepatica motility score after 48 h ([4]; 40 μM, score 1 to 6 (inert)): 6 | F. hepatica motility score after 72 h ([4]; 40 μM, score 1 to 6 (inert)): 6
